Data as given in patent US4642341A, “Carbapenem antibiotics” (priority 1985, dated 1987).
Values after ≈ are worked out from the molar mass of the structure shown. Read-outs that look alike come from different tables or passages of the source.

Experiments:
[1] = test system: various Pseudomonas species; details: cited from earlier work
S. aureus A-9537 = experiment: Minimum Inhibitory Concentration, tube dilution; assay type: cell-based; details: Staphylococcus aureus, table 6, read-out: MIC
[2] = test system: S. aureus A15097 (Meth-res.); experiment: Minimum Inhibitory Concentration, tube dilution; assay type: cell-based; details: Staphylococcus aureus, table 6
M. morganii A15153 = experiment: Minimum Inhibitory Concentration, tube dilution; assay type: cell-based; details: Morganella morganii, A15153, overnight 37° C.; table 6
K. pneumoniae A-9664 = experiment: Minimum Inhibitory Concentration, tube dilution; assay type: cell-based; details: Klebsiella pneumoniae, A9664, overnight 37° C.; table 6
S. faecalis A20688 = experiment: Minimum Inhibitory Concentration, tube dilution; assay type: cell-based; details: Enterococcus faecalis, A20688, overnight 37° C.; table 6; read-out: MIC
S. marcescens A20019 = experiment: Minimum Inhibitory Concentration, tube dilution; assay type: cell-based; details: Serratia marcescens, A20019, overnight 37° C.; table 6
[3] = test system: S. aureus A-9606 (Pen-res.); experiment: Minimum Inhibitory Concentration, tube dilution; assay type: cell-based; details: Staphylococcus aureus, Pen-res; table 6
P. aeruginosa A-9843A = experiment: Minimum Inhibitory Concentration, tube dilution; assay type: cell-based; details: Pseudomonas aeruginosa, A9843A, overnight 37° C.; table 6; read-out: MIC
P. vulgaris A21559 = experiment: Minimum Inhibitory Concentration, tube dilution; assay type: cell-based; details: Proteus vulgaris, A21559, overnight 37° C.; table 6
S. pyogenes A-9604 = experiment: Minimum Inhibitory Concentration, tube dilution; assay type: cell-based; details: Streptococcus pyogenes, A9604, overnight 37° C.; table 6
P. mirabilis A-9900 = experiment: Minimum Inhibitory Concentration, tube dilution; assay type: cell-based; details: Proteus mirabilis, A9900, overnight 37° C.; table 6
P. aeruginosa A9843A = experiment: animal or person; assay type: in vivo, mice; details: Pseudomonas aeruginosa, in Mus musculus, im, read-out: PD50 /treatment
Text: (§1) The PD50 (dose in mg/kg required to give protection to 50% of the infected mice) is indicated.

P. mirabilis A9900 = experiment: Protective effect, intramuscular treatment of infected mice (table 8); assay type: in vivo; details: Proteus mirabilis, A9900, im; i.m. 0 and 2 h post-infection; 4×10^7 organisms i.p.; read-out: PD50 /treatment
Text: as §1

[4] = Half-life in phosphate buffer pH 7.4; assay type: physicochemical; details: phosphate buffer, pH 7.4, t1/2 (half-life)
Procedure, shortened: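 Compound at 10^-4 M in phosphate buffer pH 7.4 at 36.8° C; τ1/2 reported from this incubation.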

S. pneumoniae A-9585 = experiment: Minimum Inhibitory Concentration, tube dilution; assay type: cell-based; details: Streptococcus pneumoniae, A9585, overnight 37° C.; table 6
P. aeruginosa A21213 = experiment: Minimum Inhibitory Concentration, tube dilution; assay type: cell-based; details: Pseudomonas aeruginosa, A21213, overnight 37° C.; table 6; read-out: MIC

Compound	activity against various Pseudomonas species [1]	MIC (S. aureus A-9537; A9537, 50% serum) [µg/mL]	MIC (S. aureus A-9537; A9537, overnight 37° C.) [µg/mL]	MIC [2] [µg/mL]	MIC (M. morganii A15153) [µg/mL]	MIC (K. pneumoniae A-9664) [µg/mL]	MIC (S. faecalis A20688) [µg/mL]	MIC (S. marcescens A20019) [µg/mL]	MIC [3] [µg/mL]	MIC (P. aeruginosa A-9843A) [µg/mL]	MIC (P. vulgaris A21559) [µg/mL]	MIC (S. pyogenes A-9604) [µg/mL]	MIC (P. mirabilis A-9900) [µg/mL]	ED50 (P. aeruginosa A9843A) [mg/kg]	ED50 (P. mirabilis A9900) [mg/kg]	half-life [4] [h]	MIC (S. pneumoniae A-9585) [µg/mL]	MIC (P. aeruginosa A21213) [µg/mL]
C[C@@H](O)[C@H]1C(=O)N2C(C(=O)O)=C(SCCN)C[C@H]12 [Thienamycin, thienamycin]	notable activity																	
C[C@@H](O)[C@H]1C(=O)N2C(C(=O)[O-])=C(SCC[n+]3cccc(N)c3)C[C@H]12 [Example 14, (5R, 6S)-3-[2-(3-aminopyridinio)ethylthio]-6-[1-(R)-hydroxyethyl]-7-oxo-1-azabicyclo[3.2.0]-hept-2-ene-2-carboxylate]		0.016 (≈ 0.0458 µM)	0.008 (≈ 0.0229 µM)	0.008 (≈ 0.0229 µM)	0.03 (≈ 0.0859 µM)	0.06 (≈ 0.172 µM)	0.5 (≈ 1.43 µM)	0.06 (≈ 0.172 µM)	0.008 (≈ 0.0229 µM)	2 (≈ 5.72 µM)	0.016 (≈ 0.0458 µM)	0.004 (≈ 0.0114 µM)	0.03 (≈ 0.0859 µM)	0.78	5.4	18.5	0.002 (≈ 0.00572 µM)	1 (≈ 2.86 µM)
